In ChEMBL document CHEMBL1151283, “Bis(bibenzyls) from liverworts inhibit lipopolysaccharide-induced inducible NOS in RAW 264.7 cells: a study of structure-activity relationships and molecular mechanism” (J Nat Prod, 2005) one finds Activity and IC50 data, which are given here for 18 molecules.

The structures appear in SMILES notation. Activity calls are given as the source filed them. The calls are words filed in the database; no cut-off is given here.

For one assay, the system named is RAW264.7. The experiment in a line: Inhibition of iNOS mRNA expression in mouse RAW264.7 cells […] by RT-PCR analysis. Type of assay: functional, cell-based.
With `Oc1cc2cc(c1O)Oc1ccc(cc1)CCc1cccc(O)c1Oc1cccc(c1)CC2` [MARCHANTIN A], the outcome was inactive.

The next assay deals with RAW264.7. The experiment in a line: Inhibition of LPS-induced nitric oxide production in mouse RAW264.7 cells pretreated 1 hr before LPS challenge after 24 hrs by Griess reagent method. Type of assay: functional, cell-based. Background: Griess reagent forms a coloured azo dye with nitrite.
For the molecule `COc1cccc(CCc2ccc(O)c(Oc3ccc(CCc4cccc(O)c4)cc3)c2)c1`, the 50% inhibitory concentration (IC50) is 49.9 µM.
Regarding `Oc1ccc2cc1Oc1ccc(cc1)CCc1cccc(c1)Oc1c(O)cccc1CC2` [ISOMARCHANTIN C], the half-maximal inhibitory concentration (IC50) is above 100 µM.
Consider `Oc1ccc2c(c1)CCc1ccc(O)c(c1)-c1cc(ccc1O)/C=C\c1cccc(c1)O2` [ISOPLAGIOCHIN A], for which the half-inhibitory concentration (IC50) is above 100 µM.
For the molecule `Oc1ccc2cc1-c1cc(ccc1O)CCc1c(ccc(O)c1O)Oc1cccc(c1)/C=C\2` [ISOPLAGIOCHIN B], the IC50 is above 100 µM.
In the case of `Oc1ccc2c(c1)CCc1ccc(O)c(c1)-c1cc(ccc1O)CCc1ccc-2c(O)c1` [ISOPLAGIOCHIN D], the IC50 was 14.3 µM.
Still for that read-out and setting: the result for `COc1cccc2c1Oc1cccc(c1)CCc1cc(OC)c(OC)c(c1)Oc1ccc(cc1)CC2` [MARCHANTIN A TRIMETHYL ETHER] reads 42.5 µM; that for `Oc1cc2cc(c1O)Oc1ccc(cc1)CCc1cccc(O)c1Oc1cccc(c1)CC2` [MARCHANTIN A], 1.44 µM; that for `COc1cc2cc(c1OC)Oc1ccc(cc1)CCc1ccc(OC)c(OC)c1Oc1cccc(c1)CC2` [MARCHANTIN B TETRAMETHYL ETHER], 42.5 µM.
On the same count and under the same terms, under `Oc1cc2cc(c1O)Oc1ccc(cc1)CCc1ccc(O)c(O)c1Oc1cccc(c1)CC2` [MARCHANTIN B] stands 4.1 µM; under `Oc1ccc2cc1Oc1cccc(c1)CC(O)c1cc(O)c(O)c(c1)Oc1ccc(cc1)CC2` (stereo not given) [MARCHANTIN D], 10.2 µM; under `COC1Cc2cccc(c2)Oc2c(O)cccc2CCc2ccc(cc2)Oc2cc1cc(O)c2O` (stereo not given) [MARCHANTIN E], 62.2 µM.
Same read-out and setting: under `Oc1ccc2cc1Oc1ccc(cc1)CCc1cc(O)c(O)c(c1)Oc1cccc(c1)CC2` [MARCHANTIN H] stands 15.3 µM.
For `Oc1cccc(CCc2ccc(Oc3cc(CCc4cccc(O)c4)cc(O)c3O)cc2)c1` [PERROTETTIN F], the IC50 was 7.42 µM.
For the molecule `COc1cc2c(cc1O)-c1ccc(O)cc1CCc1cc(O)c(O)c(c1)Oc1ccc(cc1)CC2` [PLAGIOCHIN A], the IC50 worked out at 9.07 µM.
On to `Oc1ccc2c(c1)/C=C/c1ccc(O)c(c1)Oc1ccc(cc1)CCc1cccc(c1)O2` [PTYCHANTOL A], for which the IC50 was above 100 µM.
Still for that read-out and setting: under `Oc1ccc2c(c1)CCc1ccc(cc1)Oc1cc(ccc1O)CCc1ccc-2c(O)c1` [RICCARDI C] stands above 100 µM; under `COc1ccc2cc1Oc1ccc(cc1)CCc1cc(O)ccc1-c1ccc(cc1O)CC2` [RICCARDI F], 5 µM.
As to `COc1ccc2c(c1)CCc1ccc(cc1)Oc1cc(ccc1O)CCc1ccc-2c(O)c1` [RICCARDIN A], the IC50 is 2.5 µM.

Another assay deals with RAW264.7. Nature of the assay: Inhibition of LPS-induced iNOS mRNA expression in mouse RAW264.7 cells […] by RT-PCR analysis. Type of assay: functional, cell-based.
As to `Oc1cc2cc(c1O)Oc1ccc(cc1)CCc1cccc(O)c1Oc1cccc(c1)CC2` [MARCHANTIN A], the Activity entry was “Dose-dependent effect”.

A word on the IC50: it is the midpoint of a concentration-inhibition curve.
